Test results taken from US7910624B1, “Compositions for the treatment of blood disorders” (The Trustees of Boston University, priority 1995, dated 2011).

Legend:
human erythroid cells = experiment: DNA fragmentation by flow cytometry (propidium iodide); format: cell-based; details: for effect in DNA fragmentation assays: summary statement
Method: Such activities might limit their utility for treatment of anemias such as occur in thalassemia, but alternatively would be useful for anticancer effects. To determine cell viability, human erythroid cells were cultured in the presence and absence of these compounds for 4 days and the amount of DNA fragmentation which occurred was measured.
Flow cytometric determination of DNA profiles and DNA fragmentation were determined. Cytometric analysis was performed with a FACScan (Becton Dickenson Instruments; Columbia, Md.). The data analysis and display were performed using the Cell-Fit software program. Approximately 0.5×10^6 cells were washed twice with PBS and resuspended in 1 ml of 1% sodium citrate, 0.1% Triton X-100 and […] of propidium iodide/ml. Resulting permeabilized cells were kept in the dark at 4° C. overnight before DNA profile or DNA fragmentation analysis (Table 4).

[1] = system: Human mammary carcinoma cells (MCF-7); experiment: Human mammary carcinoma cell viability by FACS; format: cell-based; details: 4 days
Method: Human mammary carcinoma cells (MCF-7) were cultured alone (controls) and with arginine butyrate or isobutyramide for 4 days. Viability was assayed by FACS after incubation with a fluorescent dye taken up by viable cells (FIG. 6). Growth was decreased by 50% with isobutyramide at 1.0 mM, about 60% with arginine butyrate at 0.5 mM, and greater than 90% with arginine butyrate at 1.0 mM.

[2] = system: BFU-e (burst forming unit-erythroid) colonies from peripheral blood mononuclear cells; experiment: Stimulation of erythroid proliferation in cell cultures (BFU-e colony growth); format: cell-based, human; details: 0.1 mM; 13-14 days; compared with control cultures
Method: Peripheral blood was collected from normal volunteers and patients with anemia due to sickle cell disease or thalassemia. Mononuclear cells were isolated by Ficoll-Hypaque (Pharmacia Biotech; Piscataway, N.J.) centrifugation and cultured in Iscove's Modified Dulbecco's Media (IMDM; GIBCO/BRL; Grand Island, N.Y.) supplemented with 10% fetal calf serum, 300 μg/ml glutamine, 3 units/ml IL-3 (Amgen; Thousand Oaks, Calif.), and 2 units/ml erythropoietin (Terry Fox Labs; Vancouver, B.C.). Chemical compounds were obtained from Sigma Chemical (St. Louis, Mo.) or Aldrich Chemical (Milwaukee, Wis.), unless otherwise indicated, and formulated into pharmaceutical compositions by dissolving in aqueous solutions of media or sterile water pH adjusted to about 7.4. Solutions were sterilized by passage at least once through 0.22 micron Nalgene filters and added to cell cultures at final concentrations that are pharmaceutically achievable in vivo (typically between about 0.1 mM to 2.0 mM). Cells were incubated with compounds for between 13-14 days at 37° C. in humidified 5% CO2, and fed and passed, as necessary. Colony growth, proportion of fetal globin-expressing cells and amounts of fetal globin production were assayed. Results are presented in Table 1 as BFU-e stimulation (colony growth).

[3] = system: proximal promoter of the gamma globin gene in K562 cells; experiment: Gamma globin promoter-neomycin (NEO) transfection, colony survival in G418; format: cell-based, human; details: 1 mM, 8 weeks
Method: Gamma globin promoter-neomycin transfection experiments were performed to determine if compounds act by inducing an increase in activity from the proximal promoter of the gamma globin gene. Constructs containing 61 by of the proximal gamma globin promoter were linked to the reporter gene for neomycin phosphotransferase (NEO) and transfected into permissive K562 cells by electroporation. After 18 hours, transfected cells were passed at 10^3 cells per well into RPMI media containing G418 (neomycin), which kills all mammalian cells unless the gene for NEO is expressed. Phenoxyacetic acid and thiophenoxyacetic acid were added to some of the cells plated into the RPMI/G418 media at concentrations of 1 mM. Cultures were incubated for 8 weeks with media changes performed as needed. Colonies which survived and grew in the presence of G418 were scored and the number of such colonies was compared to those generated when the cells were plated into G418 media without the test compounds. No colonies in the 24 wells survived in the absence of compounds. There was a greater than 6-fold (>600%) increase in proportions of colonies surviving the presence of phenoxyacetic acid (6/24 wells) and a three-fold (300%) increase in survival in the presence of thiophenoxyacetic acid (3/24 wells).

[4] = 1.0 mM to 2.0 mM, untreated cells 26%
[5] = 2.0 mM, 4 days, controls 26%, 22%

Row | Compound | Degraded DNA (human erythroid cells; 0.5 mM, 4 days, controls 26%, 22%) [%] | Degraded DNA (human erythroid cells; [4]) [%] | Degraded DNA (human erythroid cells; 1.0 mM, 4 days, controls 26%, 22%) [%] | Degraded DNA (human erythroid cells; [5]) [%] | effect in DNA fragmentation assays (human erythroid cells) | decrease of growth of MCF-7 ([1]; 0.5 mM) | decrease of growth of MCF-7 ([1]; 1.0 mM) | BFU-e Stimulation (colony growth) [2] [%] | increase in proportions of colonies surviving G418 [3] [%] | wells with surviving colonies ([3]; 0 of 24 wells without compounds) | increase in proportions of colonies surviving G418 ([3]; no colonies without compounds)
1 | CCCC(=O)O [AB, arginine butyrate] | 32 | 44 | 34 | 44 | decrease cell viability | about 60% | greater than 90% |  |  |  | 
2 | O=C(O)COc1ccccc1 [PAA, Phenoxyacetic acid] |  | 20.6 |  | 20.6 | reduce DNA fragmentation |  |  | 135 | > 600 | 6/24 | greater than 6 fold
